The record followed here is patent US7718680B2 (priority 2004, dated 2010).

For orientation: inhibition means how much of the control response was suppressed. A word on the IC50: it is the midpoint of a concentration-inhibition curve. One may read the Ki as a measure of affinity in units of concentration, obtained from inhibition or displacement.

Read-outs that look alike come from different tables or passages of the source. A value given as a limit tells only on which side of the number the result lay.

Test [1] has as its target T1, Lethal Factor (LF) protease of anthrax toxin (Bacillus anthracis, UniProt P15917). Nature of the test: biochemical.
For test [2], the target named is T1, Lethal Factor (LF) protease of anthrax toxin. Nature of the test: biochemical. This is another data set of the same source.
The subject of the next test is macrophages. The class given is cell-based.

T1 sequence (P15917 34-809 limits assumed): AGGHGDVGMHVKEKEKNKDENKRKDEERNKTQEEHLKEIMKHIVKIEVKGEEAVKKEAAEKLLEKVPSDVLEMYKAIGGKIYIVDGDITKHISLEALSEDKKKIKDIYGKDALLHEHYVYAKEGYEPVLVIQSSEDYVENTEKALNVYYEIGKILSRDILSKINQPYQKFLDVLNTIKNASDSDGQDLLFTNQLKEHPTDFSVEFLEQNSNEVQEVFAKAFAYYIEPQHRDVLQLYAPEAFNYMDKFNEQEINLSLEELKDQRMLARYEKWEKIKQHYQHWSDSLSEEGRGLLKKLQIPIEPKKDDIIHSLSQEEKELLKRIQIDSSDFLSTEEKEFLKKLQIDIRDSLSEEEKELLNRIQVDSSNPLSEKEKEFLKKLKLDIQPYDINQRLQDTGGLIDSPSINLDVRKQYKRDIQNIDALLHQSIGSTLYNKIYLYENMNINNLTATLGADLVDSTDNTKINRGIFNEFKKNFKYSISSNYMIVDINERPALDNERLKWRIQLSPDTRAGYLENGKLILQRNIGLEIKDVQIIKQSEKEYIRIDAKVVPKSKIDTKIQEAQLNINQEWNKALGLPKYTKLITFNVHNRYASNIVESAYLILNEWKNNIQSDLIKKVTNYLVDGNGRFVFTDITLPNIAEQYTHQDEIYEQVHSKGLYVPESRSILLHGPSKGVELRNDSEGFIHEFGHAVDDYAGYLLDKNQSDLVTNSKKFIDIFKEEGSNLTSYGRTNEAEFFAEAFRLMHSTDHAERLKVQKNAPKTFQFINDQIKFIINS

As to `O=C(O)CN1C(=O)/C(=C/c2ccco2)SC1=S` [BI-9B9b], the inhibition at 140 µM in test [1] (read-out: LF inhibition) and in test [2] (read-out: LF inhibition) was 50% in each case. The “pIC50 Obs” value in test [2] was found to be 3.85. The IC50 in test [2] (read-out: IC50) was determined as 140 µM.
On to `O=C(O)CN1C(=O)/C(=C/c2ccc(-c3ccc(Cl)cc3)o2)SC1=S` [BI-11A9], for which, in test [2], the “pIC50 Obs” value was determined as 6.05. The IC50 in test [2] (read-out: IC50) was found to be 0.9 µM.
For `O=C(O)CN1C(=O)/C(=C/c2ccc(-c3ccc(Br)cc3)o2)SC1=S` [BI-11A10], in that order: 6.07 and 0.85 µM.
Take `O=C(O)CN1C(=O)/C(=C/c2ccc(-c3ccc(Cl)cc3[N+](=O)[O-])o2)SC1=S` [BI-11A11]: the “pIC50 Obs” value in test [2] was found to be 6.30. For the same molecule, the IC50 in test [2] (read-out: IC50) worked out at 0.5 µM.
For the molecule `O=C(O)CN1C(=O)/C(=C/c2ccc(-c3ccc(Cl)c(Cl)c3)o2)SC1=S` [BI-11B2], the “potency relative to GM6001” value with macrophages was determined as 100 fold. Moreover, the “pIC50 Obs” value in test [2] is on record as 6.58. Further, the IC50 in test [2] (read-out: IC50) amounted to 0.265 µM.
As to `O=C(O)CN1C(=O)/C(=C/c2ccc(-c3cc(C(F)(F)F)ccc3Cl)o2)SC1=S` [BI-11B3], the “LF activity / cleavage of fluorinated peptide seen by 19F NMR” value (from here on “LF activity / cleavage”) in test [1] was “potent LF inhibition”. Besides, in the test on macrophages, the “potency relative to GM6001” value turned out to be 100 fold. Further, in test [2], the Ki was 0.032 µM and the “pIC50 Obs” value worked out at 6.71. Further, the IC50 in test [2] (read-out: IC50) is 0.195 µM.
For `O=C(O)CN1C(=O)/C(=C/c2ccc(-c3ccccc3)s2)SC1=S` [BI-11B10], the “pIC50 Obs” value in test [2] amounted to 6.13. Besides, the IC50 in test [2] (read-out: IC50) came out at 0.74 µM.
`CN1C(=N)NC(=O)/C1=C\c1ccc(-c2cc(C(F)(F)F)ccc2Cl)o1` [BI-11B11]: the “pIC50 Obs” value in test [2] is listed as 4.
For `O=C1NC(=S)NC(=O)C1=Cc1ccc(-c2ccc(Cl)cc2)o1` [BI-11B12], in test [2], the “pIC50 Obs” value was determined as 5.36. Moreover, the IC50 in test [2] (read-out: IC50) turned out to be 4.4 µM.
For `COc1ccc(-c2ccc(C=C3C(=O)NC(=S)NC3=O)o2)cc1Cl` [BI-11C1], in that order: 5.52 and 3 µM.
For `O=C1NC(=S)NC(=O)C1=Cc1ccc(-c2cc(C(F)(F)F)ccc2Cl)o1` [BI-11C2], in that order: 5.89 and 1.3 µM.
For `O=C1NC(=S)NC(=O)C1=Cc1ccc(-c2ccc(Cl)c(Cl)c2)o1` [BI-11C3], in that order: 5.68 and 2.1 µM.
Regarding `O=C1NC(=S)NC(=O)C1=Cc1ccc(-c2ccccc2)s1` [BI-11C4], in test [2], the “pIC50 Obs” value was 5.92. In addition, the IC50 in test [2] (read-out: IC50) is 1.2 µM.
For `CN1C(=N)NC(=O)/C1=C\c1ccc(-c2ccc(Cl)cc2)o1` [BI-11C5], in that order: 3.70 and 200 µM.
As to `CN1C(NC(=O)O)=NC(=O)/C1=C\c1ccc(-c2ccc(Cl)cc2)o1` [BI-11C11], in test [2], the IC50 is more than 100 µM and the “pIC50 Obs” value is more than 4.
For `O=C(O)CN1C(=O)/C(=C/c2ccc(-c3ccccc3)o2)SC1=S` [BI-11C12], in test [2], the “pIC50 Obs” value amounted to 4.78. In test [2] (read-out: IC50), the IC50 stood at 16.6 µM.
For the molecule `O=C(O)CN1C(=O)/C(=C/c2cccs2)SC1=S` [BI-11D1], in test [2], the “pIC50 Obs” value is on record as 4.10. The IC50 in test [2] (read-out: IC50) was found to be 79.4 µM.
For `O=C(O)CN1C(=O)/C(=C/c2nccs2)SC1=S` [BI-11D2], in that order: 4.14 and 72.4 µM.
As to `O=C(O)CN1C(=O)/C(=C/c2ccc(-c3cccs3)s2)SC1=S` [BI-11D3], the “pIC50 Obs” value in test [2] came to 5.64.
As to `O=C(O)CN1C(=O)/C(=C/c2ncc(-c3ccc(Cl)cc3)s2)SC1=S` [BI-11D5], the “pIC50 Obs” value in test [2] was 5.00. Besides, the 50% inhibitory concentration (IC50) in test [2] (read-out: IC50) turned out to be 10 µM.
For `COc1ccc(-c2cnc(/C=C3\SC(=S)N(CC(=O)O)C3=O)s2)cc1OC` [BI-11D6], in that order: 5.30 and 5 µM.
Consider `O=C(O)CN1C(=O)S/C(=C\c2ccc(-c3ccc(Cl)c(Cl)c3)o2)C1=O` [BI-11D8], for which, in test [2], the “pIC50 Obs” value was found to be 5.25. The IC50 in test [2] (read-out: IC50) was determined as 5.6 µM.
Turning to `O=C(O)CN1C(=O)/C(=C/c2ccc(-c3cc(C(F)(F)F)ccc3Cl)o2)SC1=S` [BI-11D9], the IC50 in test [2] amounted to 5.9 µM.
Consider `O=C(O)CN1C(=O)/C(=C/c2ccc(-c3ccc(Cl)cc3)s2)SC1=S` [BI-11D10], for which the “pIC50 Obs” value in test [2] amounted to 5.49. In addition, the IC50 in test [2] (read-out: IC50) stood at 3.2 µM.
`O=C(O)CN1C(=O)S/C(=C\c2ccc(/C=C3\SC(=S)N(CC(=O)O)C3=O)s2)C1=O` [BI-11E2] showed an IC50 in test [2] of 1.58 µM.
Consider `O=C(O)CN1C(=O)/C(=C/c2ncc(-c3ccc(F)cc3)s2)SC1=S` [BI-11E3], for which, in test [2], the “pIC50 Obs” value is reported as 4.65. The IC50 in test [2] (read-out: IC50) is 22.4 µM.
For `O=C(O)CN1C(=O)/C(=C/c2ncc(-c3ccc(Br)cc3)s2)SC1=S` [BI-11E4], in that order: 5.36 and 4.4 µM.
In the case of `O=C(O)CCN1C(=O)/C(=C/c2ccc(-c3ccc(Cl)cc3)o2)SC1=S` [BI-MFM3], in test [1], the “LF activity / cleavage” value is “Only the ^19F NMR signal relative to uncleaved peptide appears” and the “inhibitory activity relative to GM6001” value is “about twice as strong as GM6001”. In addition, in test [2], affinity was put at a Ki of 0.8 ± 0.3 µM, the “effect on the Vmax” value is listed as “no effect”, the “pIC50 Obs” value is on record as 5.77 and the type of inhibition result is “competitive”. Moreover, the IC50 in test [2] (read-out: IC50) worked out at 1.7 µM. The inhibition at 10 µM in test [2] (read-out: LF inhibition) was more than 70%.
With `O=C1/C(=C/c2ccc(-c3ccc(Cl)cc3)o2)SC(=S)N1Cc1ccco1` [Compound 2], the IC50 in test [2] (read-out: IC50) is 150 µM.
On the same count and under the same terms, then `C=CCN1C(=O)/C(=C/c2ccc(-c3ccc(F)cc3)o2)SC1=S` [Compound 3], with 50 µM; and `O=C1/C(=C/c2ccc(-c3ccccc3[N+](=O)[O-])o2)SC(=S)N1CCc1ccccc1` [Compound 6], with 31.9 µM; and `O=C(O)c1ccc(-c2ccc(/C=C3\SC(=S)N(Cc4cccnc4)C3=O)o2)cc1Cl` [Compound 11], with 9.9 µM.
`NS(=O)(=O)c1ccc(-c2ccc(/C=C3\SC(=S)N(CC(=O)O)C3=O)o2)cc1` [Compound 12]: the concentration for half-maximal inhibition (IC50) in test [2] (read-out: IC50) is 9.1 µM.
With `O=C1NC(=S)S/C1=C\c1ccc(-c2ccc(Cl)c(Cl)c2)o1` [Compound 13], the IC50 in test [2] (read-out: IC50) is 7.4 µM. In addition, in test [2] (read-out: LF inhibition), the inhibition at 10 µM is more than 70%.
For `O=C1NC(=S)S/C1=C\c1ccc(-c2ccc(Br)c(Cl)c2)o1` [Compound 14], in that order: 7 µM and more than 70%.
For `O=C(O)CN1C(=O)/C(=C/c2ccc(-c3ccc(I)cc3)o2)SC1=S` [Compound 16], in that order: 5.5 µM and more than 70%.
Regarding `C=CCN1C(=O)/C(=C/c2ccc(-c3ccc(C(=O)O)c(Cl)c3)o2)SC1=S` [Compound 20], the IC50 in test [2] (read-out: IC50) came out at 2.7 µM.
On to `O=C(O)CCCN1C(=O)/C(=C/c2ccc(-c3ccc(Br)cc3)o2)SC1=S` [Compound 21], for which, in test [2] (read-out: IC50), the IC50 came out at 2.3 µM.
For the molecule `CNC(=O)[C@H](Cc1c[nH]c2ccccc12)NC(=O)[C@@H](CC(=O)NO)CC(C)C` [GM6001, reference compound], in test [1], the “LF activity / cleavage” value is “reduced by approximately half”.
